Experimental data from the supplement of paper PMC10307832.

Columns and labels:
Test in all cases: relative viability (nuclei count vs DMSO), 5 days (fraction); higher = more cells survive
[1] = compound: C1/C(=C\C2=CC=CS2)/C(=O)/C(=C/C3=CC=CS3)/C1 + CC(C)C[C@H](NC(=O)[C@H](Cc1ccccc1)NC(=O)c1cnccn1)B(O)O [Bortezomib] (partner 0.002 µM)
Summary of the method: (§1)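 Medians of duplicate plates are given as relative viability. That measure is the nuclei count in treated wells divided by the count in vehicle wells. Counts were taken on 4× images of lung cancer cell lines in 1536-well plates, 5 days after pin-tool dosing the day after seeding with one drug alone or a fixed anchor-drug dose plus five library-drug doses (not always all listed) in √10 steps.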

[2] = compound: C1/C(=C\C2=CC=CS2)/C(=O)/C(=C/C3=CC=CS3)/C1 + C[C@]1(O)C[C@@H](c2nc(-c3ccc4ccc(-c5ccccc5)nc4c3)c3c(N)nccn32)C1 [Linsitinib] (partner 1 µM)
Summary of the method: as §1

TPCA-1 + Pemetrexed = compound: C1=CC(=CC=C1C2=CC(=C(S2)NC(=O)N)C(=O)N)F [TPCA-1] + Nc1nc2[nH]cc(CCc3ccc(C(=O)N[C@@H](CCC(=O)O)C(=O)O)cc3)c2c(=O)[nH]1 [Pemetrexed] (partner 0.2 µM)
Summary of the method: as §1

Lestaurtinib + OSI-027 = compound: C[C@]12O[C@H](C[C@]1(O)CO)n1c3ccccc3c3c4c(c5c6ccccc6n2c5c31)CNC4=O [Lestaurtinib] + COc1cccc2cc(-c3nc([C@H]4CC[C@H](C(=O)O)CC4)n4ncnc(N)c34)[nH]c12 [OSI-027] (partner 0.5 µM)
Summary of the method: as §1

| Cell Line | relative viability ([1]; first compound 0.2 µM) | relative viability ([1]; first compound 0.6325 µM) | relative viability ([1]; first compound 2 µM) | relative viability ([1]; first compound 6.325 µM) | relative viability ([1]; first compound 20 µM) | relative viability ([2]; first compound 0.2 µM) | relative viability ([2]; first compound 0.6325 µM) | relative viability ([2]; first compound 2 µM) | relative viability ([2]; first compound 6.325 µM) | relative viability ([2]; first compound 20 µM) | relative viability (TPCA-1 + Pemetrexed; first compound 0.04 µM) | relative viability (TPCA-1 + Pemetrexed; first compound 0.1265 µM) | relative viability (TPCA-1 + Pemetrexed; first compound 0.4 µM) | relative viability (TPCA-1 + Pemetrexed; first compound 1.265 µM) | relative viability (TPCA-1 + Pemetrexed; first compound 4 µM) | relative viability (Lestaurtinib + OSI-027; first compound 0.005 µM) | relative viability (Lestaurtinib + OSI-027; first compound 0.01581 µM) | relative viability (Lestaurtinib + OSI-027; first compound 0.05 µM) | relative viability (Lestaurtinib + OSI-027; first compound 0.1581 µM) | relative viability (Lestaurtinib + OSI-027; first compound 0.5 µM) |
| --- | --- | --- | --- | --- | --- | --- | --- | --- | --- | --- | --- | --- | --- | --- | --- | --- | --- | --- | --- | --- |
| NCI-H1563 | 1.01 | 0.912 | 1.11 | 0.86 | 0.859 | 1.43 | 1.16 | 1.28 | 0.893 | 1.08 | 0.799 | 0.508 | 0.788 | 0.642 | 0.599 | 0.724 | 0.755 | 0.757 | 0.777 | 0.734 |
| NCI-H1651 | 0.876 | 0.995 | 0.916 | 0.914 | 0.925 | 1.11 | 1.06 | 0.92 |  | 1.05 | 0.601 | 0.538 | 0.532 | 0.527 | 0.338 | 0.745 | 0.799 | 0.566 | 0.753 | 0.493 |
| NCI-H1666 | 0.724 | 0.67 | 0.643 | 0.559 | 0.666 | 0.828 | 0.762 | 0.776 | 0.481 | 0.825 | 1.02 | 0.818 | 0.842 | 0.82 | 0.93 | 0.904 | 0.934 | 0.917 | 0.757 | 0.518 |
| NCI-H1734 | 1.03 | 0.953 | 0.906 | 0.805 | 0.881 | 0.902 | 0.931 | 0.947 | 0.782 | 0.875 | 0.41 | 0.413 | 0.41 | 0.48 | 0.362 | 0.678 | 0.571 | 0.368 | 0.362 | 0.187 |
| NCI-H1755 | 1.01 | 0.897 | 1.03 | 0.853 | 0.928 | 1.06 | 1.07 | 1.04 | 0.818 | 0.939 | 0.448 | 0.437 | 0.459 | 0.379 | 0.444 | 0.814 | 0.706 | 0.471 | 0.406 | 0.338 |
| NCI-H1792 | 0.968 | 0.957 | 1.06 |  | 0.832 | 0.523 | 0.618 | 0.617 |  | 0.451 | 1.24 | 0.721 | 0.764 | 0.672 | 0.222 | 0.95 | 0.698 | 0.83 | 0.776 | 0.424 |
| NCI-H1915 | 0.982 | 0.97 | 1.02 | 0.908 | 0.895 | 1.14 | 1.08 | 1.09 | 1.04 | 1.1 | 0.532 | 0.507 | 0.509 | 0.46 | 0.371 | 0.687 | 0.477 | 0.42 | 0.337 | 0.246 |
| NCI-H1975 | 0.435 | 0.421 | 0.361 | 0.334 | 0.367 | 1.02 | 0.947 | 0.957 | 0.808 | 0.9 | 0.305 | 0.297 | 0.3 | 0.298 | 0.286 | 0.795 | 0.75 | 0.534 | 0.412 | 0.347 |
| NCI-H1993 | 1.07 | 0.946 | 1.36 | 0.915 | 1.19 | 0.683 | 0.694 | 0.672 | 0.679 | 0.792 | 0.613 | 0.547 | 0.564 | 0.628 | 0.503 | 0.59 | 0.555 | 0.524 | 0.534 | 0.423 |
| NCI-H2009 | 1.04 | 0.939 | 1.08 | 0.736 | 0.991 | 1.28 | 1.2 | 1.15 | 0.712 | 1.13 | 1.07 | 0.979 | 1 | 1.11 | 0.99 | 0.578 | 0.449 | 0.365 | 0.441 | 0.24 |
| NCI-H2023 | 0.964 | 0.942 | 1.21 | 0.869 | 0.868 | 0.794 | 0.684 | 0.668 | 0.731 | 0.679 | 0.2 | 0.282 | 0.254 | 0.222 | 0.202 | 0.375 | 0.407 | 0.341 | 0.296 | 0.104 |
| NCI-H2085 | 1.16 | 1.08 | 1.15 | 1.02 | 1.03 | 1.05 | 0.941 | 0.805 | 0.797 | 1.05 |  | 0.864 | 0.918 | 0.872 | 0.634 | 0.707 | 0.822 | 0.801 | 0.658 | 0.521 |
| NCI-H2087 | 0.922 | 0.742 | 0.963 | 0.512 | 0.73 | 1.06 | 1.05 | 0.928 | 0.678 | 0.936 | 0.615 | 0.472 | 0.646 | 0.651 | 0.539 | 0.627 | 0.634 | 0.531 | 0.408 | 0.338 |
| NCI-H2126 | 1.16 | 1.1 | 1.21 | 0.994 | 1.1 | 0.673 | 0.698 | 0.754 | 0.553 | 0.709 | 0.636 | 0.607 | 0.679 | 0.508 | 0.524 | 0.6 | 0.844 | 0.665 | 0.658 | 0.539 |
| NCI-H2228 | 1.11 | 0.987 | 1.44 | 0.808 | 0.86 | 0.764 | 0.628 | 1.16 | 0.563 | 0.631 | 0.364 | 0.322 | 0.319 | 0.316 | 0.306 | 0.528 | 0.627 | 0.349 | 0.294 | 0.104 |
| NCI-H2347 | 0.847 | 1 | 1.04 | 0.831 | 1.04 | 0.918 | 0.953 | 0.922 | 0.891 | 0.938 | 0.385 | 0.419 | 0.417 | 0.385 | 0.424 | 0.402 | 0.423 | 0.409 | 0.33 | 0.367 |
